Experimental data as given in US20230321012A1 (priority 2021, published 2023).

Test: clinical
Procedure: Clinical Trial Outline. […] All solid tumor types are eligible for the trial. […] An expansion cohort was included at the RP2D level to confirm safety and tolerability of the combination. […] In Part 2, patients were treated by giving both agents twice daily (BID dosing schedule).
Plasma samples were analyzed for AMXT 1501 concentration via a LC/MS^2 procedure (MI-0028-DB-AB; Agilux Laboratories, Worcester, Massachusetts), and the resulting concentration versus time data were used to estimate individual PK parameters using noncompartmental analysis (NCA).

## CCCCCCCCCCCCCCCC(=O)NCCCC[C@@H](N)C(=O)NCCCNCCCCNCCCN [AMXT 1501, D-lys(palmitoyl)-spermine]
human, plasma, oral, 400 mg, Tmax Median, Part 1 Cohort 3, 400 mg QD, Day 1
  Tmax: 5 h
human, plasma, oral, 1200 mg, AUC0-6 hr Mean, Part 1 Cohort 4, 1200 mg QD, Cycle 1 Day 1
  AUC(0-t): 197 ng·h/mL
human, plasma, oral, 1200 mg, AUC0-6 hr Mean, Part 1 Cohort 4, 1200 mg QD, Cycle 1 Day 14
  AUC(0-t): 1130 ng·h/mL
human, plasma, oral, 1200 mg, AUC0-6 hr Median, Part 1 Cohort 4, 1200 mg QD, Cycle 1 Day 1
  AUC(0-t): 238 ng·h/mL
human, plasma, oral, 1200 mg, AUC0-6 hr Median, Part 1 Cohort 4, 1200 mg QD, Cycle 1 Day 14
  AUC(0-t): 681 ng·h/mL
human, plasma, oral, 1200 mg, AUC0-t Mean, Part 1 Cohort 4, 1200 mg QD, Cycle 1 Day 1
  AUC(0-t): 2730 ng·h/mL
human, plasma, oral, 1200 mg, AUC0-t Mean, Part 1 Cohort 4, 1200 mg QD, Cycle 1 Day 14
  AUC(0-t): 4700 ng·h/mL
human, plasma, oral, 1200 mg, AUC0-t Median, Part 1 Cohort 4, 1200 mg QD, Cycle 1 Day 1
  AUC(0-t): 831 ng·h/mL
human, plasma, oral, 1200 mg, AUC0-t Median, Part 1 Cohort 4, 1200 mg QD, Cycle 1 Day 14
  AUC(0-t): 3490 ng·h/mL
human, plasma, oral, 1200 mg, Cmax Mean, Part 1 Cohort 4, 1200 mg QD, Cycle 1 Day 1
  Cmax: 104 ng/mL
human, plasma, oral, 1200 mg, Cmax Mean, Part 1 Cohort 4, 1200 mg QD, Cycle 1 Day 14
  Cmax: 276 ng/mL
human, plasma, oral, 1200 mg, Cmax Median, Part 1 Cohort 4, 1200 mg QD, Cycle 1 Day 1
  Cmax: 71.2 ng/mL
human, plasma, oral, 1200 mg, Cmax Median, Part 1 Cohort 4, 1200 mg QD, Cycle 1 Day 14
  Cmax: 227 ng/mL
human, plasma, oral, 1200 mg, Tmax Mean, Part 1 Cohort 4, 1200 mg QD, Cycle 1 Day 1
  Tmax: 11.3 h
human, plasma, oral, 1200 mg, Tmax Mean, Part 1 Cohort 4, 1200 mg QD, Cycle 1 Day 14
  Tmax: 6 h
human, plasma, oral, 1200 mg, Tmax Median, Part 1 Cohort 4, 1200 mg QD, Cycle 1 Day 1
  Tmax: 6 h
human, plasma, oral, 1200 mg, Tmax Median, Part 1 Cohort 4, 1200 mg QD, Cycle 1 Day 14
  Tmax: 6 h
human, plasma, oral, 1800 mg
  AUC: 14200 ng·h/mL
human, plasma, oral, 1800 mg, AUC0-6 hr Mean, Part 1 Cohort 5, 1800 mg QD, Cycle 1 Day 1
  AUC(0-t): 750 ng·h/mL
human, plasma, oral, 1800 mg, AUC0-6 hr Mean, Part 1 Cohort 5, 1800 mg QD, Cycle 1 Day 14
  AUC(0-t): 3110 ng·h/mL
human, plasma, oral, 1800 mg, AUC0-6 hr Mean, Part 1 Cohort 5, 1800 mg QD, Cycle 2 Day 14, n=1
  AUC(0-t): 7240 ng·h/mL
human, plasma, oral, 1800 mg, AUC0-6 hr Median, Part 1 Cohort 5, 1800 mg QD, Cycle 1 Day 1
  AUC(0-t): 662 ng·h/mL
human, plasma, oral, 1800 mg, AUC0-6 hr Median, Part 1 Cohort 5, 1800 mg QD, Cycle 1 Day 14
  AUC(0-t): 3020 ng·h/mL
human, plasma, oral, 1800 mg, AUC0-6 hr Median, Part 1 Cohort 5, 1800 mg QD, Cycle 2 Day 14, n=1
  AUC(0-t): 7240 ng·h/mL
human, plasma, oral, 1800 mg, AUC0-t Mean, Part 1 Cohort 5, 1800 mg QD, Cycle 1 Day 1
  AUC(0-t): 10200 ng·h/mL
human, plasma, oral, 1800 mg, AUC0-t Mean, Part 1 Cohort 5, 1800 mg QD, Cycle 1 Day 14
  AUC(0-t): 14200 ng·h/mL
human, plasma, oral, 1800 mg, AUC0-t Mean, Part 1 Cohort 5, 1800 mg QD, Cycle 2 Day 14, n=1
  AUC(0-t): 33700 ng·h/mL
human, plasma, oral, 1800 mg, AUC0-t Median, Part 1 Cohort 5, 1800 mg QD, Cycle 1 Day 1
  AUC(0-t): 12700 ng·h/mL
human, plasma, oral, 1800 mg, AUC0-t Median, Part 1 Cohort 5, 1800 mg QD, Cycle 1 Day 14
  AUC(0-t): 12800 ng·h/mL
human, plasma, oral, 1800 mg, AUC0-t Median, Part 1 Cohort 5, 1800 mg QD, Cycle 2 Day 14, n=1
  AUC(0-t): 33700 ng·h/mL
human, plasma, oral, 1800 mg, Cmax Mean, Part 1 Cohort 5, 1800 mg QD, Cycle 1 Day 1
  Cmax: 367 ng/mL
human, plasma, oral, 1800 mg, Cmax Mean, Part 1 Cohort 5, 1800 mg QD, Cycle 1 Day 14
  Cmax: 794 ng/mL
human, plasma, oral, 1800 mg, Cmax Mean, Part 1 Cohort 5, 1800 mg QD, Cycle 2 Day 14, n=1
  Cmax: 1950 ng/mL
human, plasma, oral, 1800 mg, Cmax Median, Part 1 Cohort 5, 1800 mg QD, Cycle 1 Day 1
  Cmax: 374 ng/mL
human, plasma, oral, 1800 mg, Cmax Median, Part 1 Cohort 5, 1800 mg QD, Cycle 1 Day 14
  Cmax: 766 ng/mL
human, plasma, oral, 1800 mg, Cmax Median, Part 1 Cohort 5, 1800 mg QD, Cycle 2 Day 14, n=1
  Cmax: 1950 ng/mL
human, plasma, oral, 1800 mg, Tmax Mean, Part 1 Cohort 5, 1800 mg QD, Cycle 1 Day 14
  Tmax: 5.5 h
human, plasma, oral, 1800 mg, Tmax Mean, Part 1 Cohort 5, 1800 mg QD, Cycle 2 Day 14, n=1
  Tmax: 6 h
human, plasma, oral, 1800 mg, Tmax Median, Part 1 Cohort 5, 1800 mg QD, Cycle 1 Day 1
  Tmax: 6 h
human, plasma, oral, 1800 mg, Tmax Median, Part 1 Cohort 5, 1800 mg QD, Cycle 1 Day 14
  Tmax: 6 h
human, plasma, oral, 1800 mg, Tmax Median, Part 1 Cohort 5, 1800 mg QD, Cycle 2 Day 14, n=1
  Tmax: 6 h
human, plasma, oral, 1800 mg, average Cmax, plasma AMXT 1501, Part 1 Cohort 5, 1,800 mg, repeat dosing Day 14, n=4
  Cmax: 794 ng/mL
human, plasma, oral, AUC0-6 hr Mean, Part 1 Cohort 1, 80 mg QD, Cycle 1 Day 28, +DFMO 500 mg/day
  AUC(0-t): 60.5 ng·h/mL
human, plasma, oral, AUC0-6 hr Mean, Part 1 Cohort 2, 160 mg QD, Cycle 1 Day 28, +DFMO 500 mg/day
  AUC(0-t): 88.6 ng·h/mL
human, plasma, oral, AUC0-6 hr Mean, Part 1 Cohort 3, 400 mg QD, Cycle 1 Day 28, +DFMO 500 mg/day
  AUC(0-t): 234 ng·h/mL
human, plasma, oral, AUC0-6 hr Mean, Part 1 Cohort 5, 1800 mg QD, Cycle 1 Day 28, +DFMO 500 mg/day
  AUC(0-t): 1860 ng·h/mL
human, plasma, oral, AUC0-6 hr Median, Part 1 Cohort 1, 80 mg QD, Cycle 1 Day 28, +DFMO 500 mg/day
  AUC(0-t): 62.9 ng·h/mL
human, plasma, oral, AUC0-6 hr Median, Part 1 Cohort 2, 160 mg QD, Cycle 1 Day 28, +DFMO 500 mg/day
  AUC(0-t): 84.8 ng·h/mL
human, plasma, oral, AUC0-6 hr Median, Part 1 Cohort 3, 400 mg QD, Cycle 1 Day 28, +DFMO 500 mg/day
  AUC(0-t): 93.8 ng·h/mL
human, plasma, oral, AUC0-6 hr Median, Part 1 Cohort 5, 1800 mg QD, Cycle 1 Day 28, +DFMO 500 mg/day
  AUC(0-t): 1430 ng·h/mL
human, plasma, oral, AUC0-t Mean, Part 1 Cohort 1, 80 mg QD, Cycle 1 Day 28, +DFMO 500 mg/day
  AUC(0-t): 169 ng·h/mL
human, plasma, oral, AUC0-t Mean, Part 1 Cohort 2, 160 mg QD, Cycle 1 Day 28, +DFMO 500 mg/day
  AUC(0-t): 150 ng·h/mL
human, plasma, oral, AUC0-t Mean, Part 1 Cohort 3, 400 mg QD, Cycle 1 Day 28, +DFMO 500 mg/day
  AUC(0-t): 791 ng·h/mL
human, plasma, oral, AUC0-t Mean, Part 1 Cohort 5, 1800 mg QD, Cycle 1 Day 28, +DFMO 500 mg/day
  AUC(0-t): 7370 ng·h/mL
human, plasma, oral, AUC0-t Median, Part 1 Cohort 1, 80 mg QD, Cycle 1 Day 28, +DFMO 500 mg/day
  AUC(0-t): 62.9 ng·h/mL
human, plasma, oral, AUC0-t Median, Part 1 Cohort 2, 160 mg QD, Cycle 1 Day 28, +DFMO 500 mg/day
  AUC(0-t): 112 ng·h/mL
human, plasma, oral, AUC0-t Median, Part 1 Cohort 3, 400 mg QD, Cycle 1 Day 28, +DFMO 500 mg/day
  AUC(0-t): 422 ng·h/mL
human, plasma, oral, AUC0-t Median, Part 1 Cohort 5, 1800 mg QD, Cycle 1 Day 28, +DFMO 500 mg/day
  AUC(0-t): 6920 ng·h/mL
human, plasma, oral, Cmax Mean, Part 1 Cohort 1, 80 mg QD, Cycle 1 Day 28, +DFMO 500 mg/day
  Cmax: 16.4 ng/mL
human, plasma, oral, Cmax Mean, Part 1 Cohort 2, 160 mg QD, Cycle 1 Day 28, +DFMO 500 mg/day
  Cmax: 23.7 ng/mL
human, plasma, oral, Cmax Mean, Part 1 Cohort 3, 400 mg QD, Cycle 1 Day 28, +DFMO 500 mg/day
  Cmax: 55.8 ng/mL
human, plasma, oral, Cmax Mean, Part 1 Cohort 5, 1800 mg QD, Cycle 1 Day 28, +DFMO 500 mg/day
  Cmax: 401 ng/mL
human, plasma, oral, Cmax Median, Part 1 Cohort 1, 80 mg QD, Cycle 1 Day 28, +DFMO 500 mg/day
  Cmax: 15.1 ng/mL
human, plasma, oral, Cmax Median, Part 1 Cohort 2, 160 mg QD, Cycle 1 Day 28, +DFMO 500 mg/day
  Cmax: 23.2 ng/mL
human, plasma, oral, Cmax Median, Part 1 Cohort 3, 400 mg QD, Cycle 1 Day 28, +DFMO 500 mg/day
  Cmax: 20.3 ng/mL
human, plasma, oral, Cmax Median, Part 1 Cohort 5, 1800 mg QD, Cycle 1 Day 28, +DFMO 500 mg/day
  Cmax: 321 ng/mL
human, plasma, oral, Tmax Mean, Part 1 Cohort 1, 80 mg QD, Cycle 1 Day 28, +DFMO 500 mg/day
  Tmax: 11.3 h
human, plasma, oral, Tmax Mean, Part 1 Cohort 2, 160 mg QD, Cycle 1 Day 28, +DFMO 500 mg/day
  Tmax: 4.5 h
human, plasma, oral, Tmax Mean, Part 1 Cohort 3, 400 mg QD, Cycle 1 Day 28, +DFMO 500 mg/day
  Tmax: 11.3 h
human, plasma, oral, Tmax Mean, Part 1 Cohort 5, 1800 mg QD, Cycle 1 Day 28, +DFMO 500 mg/day
  Tmax: 4.67 h
human, plasma, oral, Tmax Median, Part 1 Cohort 1, 80 mg QD, Cycle 1 Day 28, +DFMO 500 mg/day
  Tmax: 6 h
human, plasma, oral, Tmax Median, Part 1 Cohort 2, 160 mg QD, Cycle 1 Day 28, +DFMO 500 mg/day
  Tmax: 4 h
human, plasma, oral, Tmax Median, Part 1 Cohort 3, 400 mg QD, Cycle 1 Day 28, +DFMO 500 mg/day
  Tmax: 6 h
human, plasma, oral, Tmax Median, Part 1 Cohort 5, 1800 mg QD, Cycle 1 Day 28, +DFMO 500 mg/day
  Tmax: 4 h
human, plasma, oral, mean Cmax, plasma AMXT 1501, n=9 patients, 1,200 mg daily split BID plus 1,000 mg daily DFMO split BID
  Cmax: 493 ng/mL
human, plasma, oral, plasma AMXT 1501 Cmax with no DLTs observed, a couple of adult patients
  Cmax: > 1000 ng/mL
human, plasma, oral, plasma Cmax, AMXT 1501, melanoma patient, 1,200 mg daily split BID plus 1,000 mg daily DFMO
  Cmax: 239 ng/mL
patients, DFMO co-administration
  effect of co-administration of DFMO on PK of AMXT 1501: no obvious effect
Single or repeat PO dosing, dose levels of 160 mg and higher
  dose dependence of mean AMXT 1501 exposure: increased in a dose-dependent manner
Three patients in First-in-Human trial
  plasma AMXT 1501 level achieved: 1,000 ng/mL
